This passage reports CC50 and MIC results from ChEMBL document CHEMBL4513151, “CO-ADD screening of Institut Català d'Investigació Química (Spain) compounds”.

≈ marks a conversion by molar mass, not a printed value.

Experiment [1] concerns HEK293. The experiment in a line: cells. It is filed as functional. Particulars: Homo sapiens, ATCC CRL1573, HEK293; ASSAY_TEST Inhibition of Cell Viability; detection method Resazurin; Fluorescence (ex560/em590); MEDIA DMEM with 10% FBS; plate type 384well; TC; CORNING #3712; time 18 hr.
The test system of experiment [2] is Cryptococcus neoformans.
Description: Antifungal activity against Cryptococcus neoformans H99 ATCC 208821 (CO-ADD:FG_002); MIC in YNB media using NBS plates, by Resazurin OD(600-570)
For experiment [3], the system named is Pseudomonas aeruginosa. The experiment in a line: microbe, parasite or virus in culture. Particulars: ATCC 27853, 18 h, ASSAY_TEST Inhibition of Bacterial Growth, detection method Absorption (OD600), MEDIA CAMHB, plate type 384well, NBS, CORNING #3640.
Description: Antibacterial activity against Pseudomonas aeruginosa ATCC 27853 (CO-ADD:GN_042); MIC in CAMBH media using NBS plates, by OD(600)
Experiment [4] deals with Acinetobacter baumannii. The experiment in a line: microbe, parasite or virus in culture. The note with it: ATCC 19606, 18 h, ASSAY_TEST Inhibition of Bacterial Growth, detection method Absorption (OD600), MEDIA CAMHB, plate type 384well, NBS, CORNING #3640.
Description: Antibacterial activity against Acinetobacter baumannii ATCC 19606 (CO-ADD:GN_034); MIC in CAMBH media using NBS plates, by OD600
In experiment [5] the test system is Escherichia coli. Description: microbe, parasite or virus in culture. The note with it: ATCC 25922, 18 h, ASSAY_TEST Inhibition of Bacterial Growth, detection method Absorption (OD600), MEDIA CAMHB, plate type 384well, NBS, CORNING #3640.
Description: Antibacterial activity against Escherichia coli ATCC 25922 (CO-ADD:GN_001); MIC in CAMBH media using NBS plates, by OD(600)
Experiment [6] concerns Staphylococcus aureus. The experiment in a line: microbe, parasite or virus in culture. Particulars: ATCC 43300, 18 h, ASSAY_TEST Inhibition of Bacterial Growth, detection method Absorption (OD600), MEDIA CAMHB, plate type 384well, NBS, CORNING #3640.
Description: Antibacterial activity against Staphylococcus aureus MRSA ATCC 43300 (CO-ADD:GP_020); MIC in CAMBH media, using NBS plates, by OD(600)
The test system of experiment [7] is Klebsiella pneumoniae. The experiment in a line: microbe, parasite or virus in culture. The note with it: ATCC 700603, 18 h, ASSAY_TEST Inhibition of Bacterial Growth, detection method Absorption (OD600), MEDIA CAMHB, plate type 384well, NBS, CORNING #3640.
Description: Antibacterial activity against Klebsiella pneumoniae MDR ATCC 70063 (CO-ADD:GN_003); MIC in CAMBH media using NBS plates, by OD(600)
The subject of experiment [8] is Candida albicans. Description: microbe, parasite or virus in culture. Particulars: ATCC 90028, ASSAY_TEST Inhibition of Fungal Growth, detection method Absorption (OD530), plate type 384well, NBS, CORNING #3640.
Description: Antifungal activity against Candida albicans ATCC 90028 (CO-ADD:FG_001); MIC in YNB media using NBS plates, by OD630

On to `C[C@]12CC[C@@H](O1)[C@H]1C=C[C@H](OC(=O)c3ccccc3)[C@H]12`, for which the 50% cytotoxic concentration (CC50) (in general, the concentration that lowers cell viability or growth by half) in experiment [1] was over 32 µg/mL. Also, the MIC in experiment [2] was over 32 µg/mL; in experiment [3] it was over 32 µg/mL; in experiment [4] it was over 32 µg/mL; in experiment [5], over 32 µg/mL; in experiment [6], 32 µg/mL (≈ 118 µM); in experiment [7] it was over 32 µg/mL. The compound also gave an MIC in experiment [8] of over 32 µg/mL.
